Assay [1] has as its target T1, recombinant α1β1γ1 complex with β1 GBD mutations (W100G/W133A and others) (Rattus norvegicus, UniProt P80386, W100G/W133A).
T1 construct: we made mutations in full-length β1 coexpressed with α1 and γ1 in CCL13 cells; made in house; host or cells: human CCL13 cells, co-transfected; isolated by anti-myc immunoprecipitation
Nature of the assay: recombinant AMPK with GBD point mutations in β1, assayed in immunoprecipitates. Type of assay: biochemical. As to conditions: 2 mM; Figure 4B. The source says:
To test whether mutations that interfered with the binding of glycogen to the GBD also affected inhibition of AMPK by glycogen, we made mutations in full-length β1 coexpressed with α1 and γ1 in CCL13 cells, isolated the complex by immunoprecipitation via the myc tag on α1, and assayed the kinase activity in the presence and absence of glycogen. The activities were adjusted to correct for slight variation in recovery of the α1 subunit assessed by blotting (inset in Figure 3A). […] Because all of these assays were conducted in resuspended immunoprecipitates, the degree of inhibition of the wild-type was < 50%, as discussed in the previous section. […]
Figure 3 Effect of β Subunit Mutations on Inhibition of Recombinant AMPK Complexes by Glycogen (A) Myc-α1, γ1, and β1 with the wild-type sequence or the indicated mutations were expressed in CCL13 cells, immunoprecipitated, and assayed ± bovine liver glycogen (200 mM glucose equivalents); results are mean ± SEM (n = 3). […] (C) Myc-α1, γ1, and β1 with the wild-type sequence or with W100G/W133A mutations were expressed in CCL13 cells, immunoprecipitated using anti-myc (left) or anti-FLAG (right) antibodies, and analyzed by western blotting using anti-myc antibodies (top panels) or a mixture of anti-β1 and -γ1 antibodies (bottom panels). […]

Assay [2] concerns the target bacterially expressed rat β1 GBD. Details: method as in Koay et al. (2007). As to conditions: NMR method; ref Koay et al. (2007); read-out: KD for binding to rat β1 GBD; cited from earlier work.
The subject of the next assay is rat β1 GBD. As to conditions: cited from earlier work; for concentration that displaces the β1 GBD from glycogen: ref Polekhina et al. (2005).
For assay [3], the target named is T2, recombinant AMPK complex (myc-α1:β1:γ1) (Rattus norvegicus, UniProt P80386).
T2 construct: recombinant AMPK complex (myc-α1:β1:γ1) containing full-length (1–270) or truncated β1 subunit lacking the GBD (172–270); made in house; host or cells: human CCL13 cells, co-transfected; isolated by anti-myc immunoprecipitation
T2 sequence (P80386 whole entry, the tested form may be a part): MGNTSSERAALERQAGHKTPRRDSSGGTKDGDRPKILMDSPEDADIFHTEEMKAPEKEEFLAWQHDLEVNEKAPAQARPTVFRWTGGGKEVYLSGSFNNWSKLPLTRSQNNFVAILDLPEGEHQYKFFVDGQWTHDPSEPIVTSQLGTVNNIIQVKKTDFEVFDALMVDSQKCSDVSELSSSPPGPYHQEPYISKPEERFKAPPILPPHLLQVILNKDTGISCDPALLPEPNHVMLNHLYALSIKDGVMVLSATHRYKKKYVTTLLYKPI
T2 sequence (P54645 13-559 partner limits assumed): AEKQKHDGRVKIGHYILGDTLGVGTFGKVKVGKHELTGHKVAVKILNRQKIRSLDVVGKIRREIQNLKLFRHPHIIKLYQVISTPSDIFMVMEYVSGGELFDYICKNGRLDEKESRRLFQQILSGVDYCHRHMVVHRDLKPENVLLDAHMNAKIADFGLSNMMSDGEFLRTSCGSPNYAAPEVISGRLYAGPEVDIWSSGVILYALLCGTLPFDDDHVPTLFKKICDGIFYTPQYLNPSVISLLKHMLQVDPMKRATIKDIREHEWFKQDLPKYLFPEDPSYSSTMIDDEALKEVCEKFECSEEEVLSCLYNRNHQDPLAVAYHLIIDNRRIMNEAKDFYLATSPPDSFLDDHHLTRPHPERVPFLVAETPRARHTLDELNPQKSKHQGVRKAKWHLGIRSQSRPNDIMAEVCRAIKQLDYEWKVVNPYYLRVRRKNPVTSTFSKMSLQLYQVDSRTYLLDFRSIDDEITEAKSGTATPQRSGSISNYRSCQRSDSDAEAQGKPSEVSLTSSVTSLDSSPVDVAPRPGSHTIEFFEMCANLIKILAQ
T2 sequence (P80385 whole entry partner, the tested form may be a part): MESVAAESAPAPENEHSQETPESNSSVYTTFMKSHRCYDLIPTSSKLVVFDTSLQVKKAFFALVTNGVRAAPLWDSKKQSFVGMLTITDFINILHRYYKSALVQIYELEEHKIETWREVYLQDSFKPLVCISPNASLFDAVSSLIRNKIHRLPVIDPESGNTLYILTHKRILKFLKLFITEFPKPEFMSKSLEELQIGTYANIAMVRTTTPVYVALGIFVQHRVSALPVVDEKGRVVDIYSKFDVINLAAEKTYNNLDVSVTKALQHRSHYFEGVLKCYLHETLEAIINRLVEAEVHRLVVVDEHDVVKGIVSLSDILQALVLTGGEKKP
Nature of the assay: recombinant wild-type AMPK expressed in CCL13 cells, assayed in anti-myc immunoprecipitates. Type of assay: biochemical. The settings on record: 2 mM; Figure 6C. The source says: Figure 2 Allosteric Inhibition of AMPK by Different Glycogen Preparations (A) Concentration dependence of inhibition of native rat liver AMPK by preparations of bovine and rat liver glycogen; glycogen concentrations expressed as glucose produced after total hydrolysis. Data were fitted to an IC50 equation (see Supplemental Experimental Procedures), and curves were generated using the estimated best-fit parameters. (B) Concentration dependence of inhibition of native rat liver AMPK by bovine liver glycogen in the presence and absence of 200 μM AMP; curves were generated as in (A). (C) Inhibition by bovine liver glycogen of recombinant AMPK complex (myc-α1:β1:γ1) containing full-length (1–270) or truncated β1 subunit lacking the GBD (172–270). Complexes were expressed in CCL13 cells and purified by immunoprecipitation prior to assay with or without glycogen (200 mM glucose equivalents). Data are means ± SEM (n = 3). ^∗Activity different from control without glycogen by t test (p < 0.05). […] Results are expressed as percentages of the activity in controls without glycogen, and data are mean ± SEM (n = 3). […]

The target in the next assay is native rat liver AMPK (Rattus norvegicus, UniProt P80386). Nature of the assay: AMPK kinase assay (SAMS peptide), native rat liver AMPK in solution. The assay is classed as biochemical. The settings on record: up to 100 mM. The procedure: We next tested the effect of glycogen on the activity of the native AMPK complex purified from rat liver ([Hawley et al., 1996]). […] The bovine liver glycogen inhibited AMPK completely with an IC50 (concentration causing half-maximal inhibition) of 30 ± 9 mM glucose equivalents (Figure 2A).
native rat liver AMPK, sequence (P80386 2-270): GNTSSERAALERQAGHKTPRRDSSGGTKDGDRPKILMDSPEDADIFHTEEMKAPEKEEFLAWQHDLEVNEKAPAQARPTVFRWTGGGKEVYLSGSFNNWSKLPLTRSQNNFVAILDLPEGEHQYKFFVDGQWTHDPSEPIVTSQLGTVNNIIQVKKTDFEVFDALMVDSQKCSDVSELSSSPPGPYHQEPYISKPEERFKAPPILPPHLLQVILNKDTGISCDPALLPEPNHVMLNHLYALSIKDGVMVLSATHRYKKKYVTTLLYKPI
native rat liver AMPK, sequence (P54645 whole entry partner): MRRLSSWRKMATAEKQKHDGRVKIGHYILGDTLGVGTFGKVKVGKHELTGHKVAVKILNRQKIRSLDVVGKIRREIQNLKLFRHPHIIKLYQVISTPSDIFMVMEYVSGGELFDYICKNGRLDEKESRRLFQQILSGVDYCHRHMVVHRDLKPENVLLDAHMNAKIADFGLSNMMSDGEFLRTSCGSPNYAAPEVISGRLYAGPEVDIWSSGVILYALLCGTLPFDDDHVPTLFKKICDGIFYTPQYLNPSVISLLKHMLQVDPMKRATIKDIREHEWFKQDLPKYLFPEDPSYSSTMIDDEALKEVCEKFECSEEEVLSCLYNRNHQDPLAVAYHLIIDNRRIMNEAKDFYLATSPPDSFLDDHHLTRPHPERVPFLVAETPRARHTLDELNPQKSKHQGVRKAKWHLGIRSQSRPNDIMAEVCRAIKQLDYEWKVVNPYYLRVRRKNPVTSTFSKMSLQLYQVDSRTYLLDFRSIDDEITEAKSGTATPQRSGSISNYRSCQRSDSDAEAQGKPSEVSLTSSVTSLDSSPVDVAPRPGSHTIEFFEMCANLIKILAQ
native rat liver AMPK, sequence (Q09137 whole entry partner): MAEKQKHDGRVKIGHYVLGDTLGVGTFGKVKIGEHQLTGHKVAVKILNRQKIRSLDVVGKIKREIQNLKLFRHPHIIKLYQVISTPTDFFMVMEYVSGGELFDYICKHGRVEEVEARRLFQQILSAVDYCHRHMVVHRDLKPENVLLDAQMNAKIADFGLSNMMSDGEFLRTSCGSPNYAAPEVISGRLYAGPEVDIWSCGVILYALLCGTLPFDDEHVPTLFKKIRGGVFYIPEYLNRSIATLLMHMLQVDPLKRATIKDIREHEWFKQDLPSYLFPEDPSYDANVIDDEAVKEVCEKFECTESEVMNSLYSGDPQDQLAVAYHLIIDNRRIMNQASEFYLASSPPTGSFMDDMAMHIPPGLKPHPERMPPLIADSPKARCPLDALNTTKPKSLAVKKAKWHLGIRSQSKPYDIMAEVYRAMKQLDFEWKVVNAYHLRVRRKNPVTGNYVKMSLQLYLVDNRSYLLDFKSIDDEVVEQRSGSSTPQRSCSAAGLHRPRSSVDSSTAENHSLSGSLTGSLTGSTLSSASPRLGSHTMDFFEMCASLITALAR
native rat liver AMPK, sequence (P80385 whole entry partner): as the sequence (P80385 whole entry partner, the tested form may be a part) above
Figure 2 Allosteric Inhibition of AMPK by Different Glycogen Preparations (A) Concentration dependence of inhibition of native rat liver AMPK by preparations of bovine and rat liver glycogen; glycogen concentrations expressed as glucose produced after total hydrolysis. Data were fitted to an IC50 equation (see Supplemental Experimental Procedures), and curves were generated using the estimated best-fit parameters. (B) Concentration dependence of inhibition of native rat liver AMPK by bovine liver glycogen in the presence and absence of 200 μM AMP; curves were generated as in (A). (C) Inhibition by bovine liver glycogen of recombinant AMPK complex (myc-α1:β1:γ1) containing full-length (1–270) or truncated β1 subunit lacking the GBD (172–270). Complexes were expressed in CCL13 cells and purified by immunoprecipitation prior to assay with or without glycogen (200 mM glucose equivalents). Data are means ± SEM (n = 3). ^∗Activity different from control without glycogen by t test (p < 0.05). (D) Inhibition by bovine liver glycogen (200 mM glucose equivalents) of purified, native rat liver AMPK (a mixture of α1β1γ1 and α2β1γ1 complexes) that had been recovered by immunoprecipitation (IP) using anti-α1, anti-α2, or a mixture of anti-α1/-α2 antibodies or assayed in solution without immunoprecipitation. Results are expressed as percentages of the activity in controls without glycogen, and data are mean ± SEM (n = 3). (E) Absorption spectra of bovine and rat liver glycogen preparations in complex with iodine. […]
Purification of Native Rat Liver, AMPK, Recombinant AMPK, and AMPK Assays AMPK was purified from rat liver as far as the gel filtration step (Hawley et al., 1996). The kinase was assayed using the SAMS peptide (Davies et al., 1989). IC50 values for inhibition were estimated by fitting data using GraphPad Prism to the equation: Activity = Residual + Maximum - (Maximum × [Inhibitor]/(IC50+[Inhibitor])) where Residual is the activity in the presence of maximal inhibition, Maximum is the maximal inhibition and [inhibitor] is the concentration of the inhibitory molecule. For recombinant AMPK, constructs encoding myc-tagged α1, β1 and γ1 subunits of AMPK were co-transfected into CCL13 cells using modifications of previous methods (Woods et al., 1996). DNA (10 µg) was dissolved in sterile water (450 µl) to which 50 μl of 2.5 M CaCl2 was added, and the solution vortexed for 1 min. […]

A further assay has as its target T3, GBD (Rattus norvegicus, UniProt P80386).
T3 construct: The rat β1 GBD (residues 70-172 was cloned into pGEX6P2, expressed in Escherichia coli (BL21)); GST (N); made in house; host or cells: E. coli BL21 (inferred)
T3 sequence (P80386 70-172): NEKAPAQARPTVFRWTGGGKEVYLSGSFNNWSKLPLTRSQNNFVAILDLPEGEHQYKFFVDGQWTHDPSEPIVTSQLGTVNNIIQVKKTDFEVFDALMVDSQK
The assay can be described thus: binding of linear oligosaccharides to the GBD (data not shown).

This is an account of results in PMC2642990, “The Glycogen-Binding Domain on the AMPK β Subunit Allows the Kinase to Act as a Glycogen Sensor” (Cell Metabolism, 2009).

The Kd is the free concentration of one partner at which half of the binding sites on the other are occupied at equilibrium, for simple one-to-one binding.

T1 sequence (P80386 2-270 W100G/W133A): as the sequence (P80386 2-270) above, with W99G, W132A counted along it
T1 sequence (P54645 whole entry partner): as the sequence (P54645 whole entry partner) above
T1 sequence (P80385 whole entry partner): as the sequence (P80385 whole entry partner, the tested form may be a part) above

Take `OC[C@H]1O[C@@H]2O[C@H]3[C@H](O)[C@@H](O)[C@@H](O[C@H]4[C@H](O)[C@@H](O)[C@@H](O[C@H]5[C@H](O)[C@@H](O)[C@@H](O[C@H]6[C@H](O)[C@@H](O)[C@@H](O[C@H]7[C@H](O)[C@@H](O)[C@@H](O[C@H]8[C@H](O)[C@@H](O)[C@@H](O[C@H]1[C@H](O)[C@H]2O)O[C@@H]8CO)O[C@@H]7CO)O[C@@H]6CO)O[C@@H]5CO)O[C@@H]4CO)O[C@@H]3CO` [β-cyclodextrin]: the “inhibition of W100G/W133A mutant” value in assay [1] is given as “abolished”. Besides, the dissociation constant (Kd) in assay [2] is 300 µM. Besides, the “competition with glycogen for binding to the GBD” value in the assay with rat β1 GBD (ref Polekhina et al. (2003, 2005)) is given as “can compete”.
With `CO[C@H]1O[C@H](CO)[C@@H](O[C@H]2O[C@H](CO)[C@@H](O)[C@H](O)[C@H]2O)[C@H](O)[C@H]1O` [Oligosaccharide 8, methyl α-maltoside], the “inhibition of wild-type recombinant α1β1γ1” value in assay [3] was “not significant”.
In the case of `OC[C@H]1O[C@H](O[C@H]2[C@H](O)[C@@H](O)C(O)O[C@@H]2CO)[C@H](O)[C@@H](O)[C@@H]1O` (mixture of isomers) [maltose], the “inhibition at concentrations up to 100 mM” value (shortened to “inhibition … to 100 mM”) at native rat liver AMPK is “did not cause any inhibition”.
In the case of maltohexaose, the “inhibition … to 100 mM” value on native rat liver AMPK was “almost no inhibition”. Further, the “binding to the GBD” value at GBD is “could bind”. Besides, in assay [2], the Kd was 700 µM. Also, the “concentration that displaces the β1 GBD from glycogen” value with rat β1 GBD was “greater than 1 mM”.
On to maltoheptaose, for which, on native rat liver AMPK, the “inhibition … to 100 mM” value is “almost no inhibition”. Also, the “binding to the GBD” value at GBD is “could bind”. Besides, the Kd in assay [2] is 400 µM. The “concentration that displaces the β1 GBD from glycogen” value in the assay on rat β1 GBD is “greater than 1 mM”.
